# Results as given in patent US12077503B2, “Substituted cyclic amides and their use as herbicides” (FMC CORPORATION, priority 2015, dated 2024).
# Where two headings read alike, the source gives them in different places.
# How the values were obtained:
# Type in all cases: in vivo
# [1] = system: ducksalad (Heteranthera limosa); assay: Test B flooded paddy test; conditions: Heteranthera limosa, 250 g ai/ha, Flood; 0 to 100 scale where 0 is no effect and 100 is complete control; read-out: Ducksalad plant response rating
# How it was run: (§1)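 2-leaf plants; pots flooded 3 cm over soil; cpd added to paddy water; depth held; greenhouse 13–15 d; visual rating vs controls, 0 = no effect, 100 = complete control.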
# rice (Oryra sativa) = assay: Test B flooded paddy test; conditions: Oryza sativa, 250 g ai/ha, Flood; 0 to 100 scale where 0 is no effect and 100 is complete control; read-out: Rice plant response rating
# How it was run: as §1
# [2] = system: sedge, umbrella (small-flower umbrella sedge, Cyperus difformis); assay: Test B flooded paddy test; conditions: Cyperus difformis, 250 g ai/ha, Flood; 0 to 100 scale where 0 is no effect and 100 is complete control; read-out: Sedge, Umbrella plant response rating
# How it was run: as §1
# [3] = system: barnyardgrass (Echinochloa crus-galli); assay: Test B flooded paddy test; conditions: Echinochloa crus-galli, 250 g ai/ha, Flood; 0 to 100 scale where 0 is no effect and 100 is complete control; read-out: Barnyardgrass plant response rating
# How it was run: as §1
# [4] = system: pigweed (Amaranthus retroflexus); assay: Test A postemergence; conditions: Amaranthus retroflexus, post-emergence, 240 h, postemergence; for pest or weed control at 125 g/ha: 125 g ai/ha; for pest or weed control at 500 g/ha: 500 g ai/ha, 0 to 100 scale, 0 is no effect, 100 is complete control
# How it was run: (§2)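 Preemergence directed soil spray on seeded pots, or postemergence application to plants 2–10 cm, one- to two-leaf. Solvent mixture non-phytotoxic, with surfactant. Scored ~10 d later, visually, 0–100 vs untreated.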
# corn (Zea mays) = assay: Test A postemergence; conditions: Zea mays, post-emergence, 240 h, postemergence; for plant injury at 125 g/ha: 125 g ai/ha; for plant injury at 500 g/ha: 500 g ai/ha, 0 to 100 scale, 0 is no effect, 100 is complete control
# How it was run: as §2
# [5] = system: wheat (Triticum aestivum); assay: Test A postemergence; conditions: Triticum aestivum, post-emergence, 240 h, postemergence; for plant injury at 125 g/ha: 125 g ai/ha; for plant injury at 500 g/ha: 500 g ai/ha, 0 to 100 scale, 0 is no effect, 100 is complete control
# How it was run: as §2
# [6] = system: ryegrass, Italian (Italian ryegrass, Lolium multiflorum); assay: Test A postemergence; conditions: Lolium multiflorum, post-emergence, 240 h, postemergence; for pest or weed control at 125 g/ha: 125 g ai/ha; for pest or weed control at 500 g/ha: 500 g ai/ha, 0 to 100 scale, 0 is no effect, 100 is complete control
# How it was run: as §2
# [7] = system: pigweed (Amaranthus retroflexus); assay: Test A preemergence; conditions: Amaranthus retroflexus, pre-emergence, 240 h, preemergence, 0 to 100 scale where 0 is no effect and 100 is complete control, read-out: Pigweed plant response rating; for pest or weed control at 125 g/ha: 125 g ai/ha; for pest or weed control at 500 g/ha: 500 g ai/ha
# [8] = system: ragweed (common ragweed, Ambrosia elatior); assay: Test A preemergence; conditions: Ambrosia artemisiifolia, pre-emergence, 240 h, preemergence, 0 to 100 scale where 0 is no effect and 100 is complete control, read-out: Ragweed plant response rating; for pest or weed control at 125 g/ha: 125 g ai/ha; for pest or weed control at 500 g/ha: 500 g ai/ha
# How it was run: as §2
# Kochia (Kochia scoparia) = assay: Test A preemergence; conditions: Bassia scoparia, pre-emergence, 240 h, preemergence, 0 to 100 scale where 0 is no effect and 100 is complete control, read-out: Kochia plant response rating; for pest or weed control at 500 g/ha: 500 g ai/ha; for pest or weed control at 125 g/ha: 125 g ai/ha, visual injury rating, approximately 10 d
# How it was run: as §2
# [9] = system: giant foxtail (Setaria faberii); assay: Test A preemergence; conditions: Setaria faberi, pre-emergence, 240 h, preemergence, 0 to 100 scale where 0 is no effect and 100 is complete control, read-out: Foxtail, Giant plant response rating; for pest or weed control at 125 g/ha: 125 g ai/ha; for pest or weed control at 500 g/ha: 500 g ai/ha
# How it was run: as §2
# [10] = system: ryegrass, Italian (Italian ryegrass, Lolium multiflorum); assay: Test A preemergence; conditions: Lolium multiflorum, pre-emergence, 240 h, preemergence, 0 to 100 scale where 0 is no effect and 100 is complete control, read-out: Ryegrass, Italian plant response rating; for pest or weed control at 125 g/ha: 125 g ai/ha; for pest or weed control at 500 g/ha: 500 g ai/ha
# How it was run: as §2
# [11] = system: barnyardgrass (Echinochloa crus-galli); assay: Test A preemergence; conditions: Echinochloa crus-galli, pre-emergence, 240 h, preemergence, read-out: Barnyardgrass plant response rating; for pest or weed control at 125 g/ha: 125 g ai/ha; for pest or weed control at 500 g/ha: 500 g ai/ha
# How it was run: as §2
# [12] = read-out: Pigweed plant response rating
# [13] = read-out: Corn plant response rating
# [14] = read-out: Wheat plant response rating
# [15] = read-out: Ryegrass, Italian plant response rating
# [16] = visual injury vs untreated controls after approx. 10 d, 0 = no effect, 100 = complete control, read-out: Pigweed plant response rating (0 to 100 scale)
# [17] = visual injury vs untreated controls after approx. 10 d, 0 = no effect, 100 = complete control, read-out: Corn plant response rating (0 to 100 scale)
# [18] = visual injury vs untreated controls after approx. 10 d, 0 = no effect, 100 = complete control, read-out: Wheat plant response rating (0 to 100 scale)
# [19] = visual injury vs untreated controls after approx. 10 d, 0 = no effect, 100 = complete control, read-out: Ryegrass, Italian plant response rating (0 to 100 scale)
# [20] = visual injury rating, approximately 10 d
# [21] = visual injury rating, 0 to 100 scale where 0 is no effect and 100 is complete control, approximately 10 d
# [22] = 0 to 100 scale where 0 is no effect and 100 is complete control
Structure (SMILES),pest or weed control at 250 g/ha [1] [%],pest or weed control at 250 g/ha (rice (Oryra sativa)) [%],pest or weed control at 250 g/ha [2] [%],pest or weed control at 250 g/ha [3] [%],"pest or weed control at 500 g/ha [4, 12] [%]",plant injury at 500 g/ha (corn (Zea mays); [13]) [%],"pest or weed control at 500 g/ha [6, 15] [%]",pest or weed control at 500 g/ha [7] [%],pest or weed control at 500 g/ha [8] [%],pest or weed control at 500 g/ha (Kochia (Kochia scoparia)) [%],pest or weed control at 500 g/ha [9] [%],pest or weed control at 500 g/ha [10] [%],"pest or weed control at 125 g/ha [4, 16] [%]",plant injury at 125 g/ha (corn (Zea mays); [17]) [%],"plant injury at 125 g/ha [5, 18] [%]","pest or weed control at 125 g/ha [6, 19] [%]","pest or weed control at 125 g/ha [7, 20] [%]","pest or weed control at 125 g/ha [8, 20] [%]",pest or weed control at 125 g/ha (Kochia (Kochia scoparia)) [%],"pest or weed control at 125 g/ha [9, 20] [%]",further results
CN1C[C@H](c2csc3ccccc23)[C@@H](C(=O)Nc2ccccc2F)C1=O [Compound 1114],85,0,0,45,0,70,40,0,0,60,90,20,,,,,,,,,"pest or weed control at 125 g/ha ([4]; visual injury on 0 to 100 scale (0 no effect, 100 complete control), approx. 10 d, read-out: Pigweed plant response rating): 0%; plant injury at 125 g/ha (corn (Zea mays); visual injury on 0 to 100 scale (0 no effect, 100 complete control), approx. 10 d, read-out: Corn plant response rating): 0%; plant injury at 125 g/ha ([5]; visual injury on 0 to 100 scale (0 no effect, 100 complete control), approx. 10 d, read-out: Wheat plant response rating): 0%; plant injury at 500 g/ha [5, 14]: 30%; pest or weed control at 125 g/ha ([6]; visual injury on 0 to 100 scale (0 no effect, 100 complete control), approx. 10 d, read-out: Ryegrass, Italian plant response rating): 0%; pest or weed control at 125 g/ha ([7]; approx. 10 d): 0%; pest or weed control at 125 g/ha ([8]; approx. 10 d): 0%; pest or weed control at 125 g/ha ([9]; approx. 10 d): 90%; pest or weed control at 125 g/ha ([10]; approx. 10 d): 0%; pest or weed control at 125 g/ha ([11]; 0 to 100 scale where 0 is no effect and 100 is complete control, approx. 10 d): 90%; pest or weed control at 500 g/ha ([11]; visual injury rating about 10 d after treatment, 0 to 100 scale (0 no effect, 100 complete control)): 90%"
CSc1ccccc1NC(=O)[C@H]1C(=O)N(C)CC[C@@H]1c1ccc(C(F)(F)F)cc1 [Compound 1227],80,15,0,0,30,0,0,60,0,0,90,70,20,0,0,0,30,0,0,50,"plant injury at 500 g/ha [5, 14]: 0%; pest or weed control at 125 g/ha [10, 20]: 20%; pest or weed control at 125 g/ha [11, 21]: 0%; pest or weed control at 500 g/ha [11, 22]: 40%"
CSc1ccccc1NC(=O)[C@H]1C(=O)N(C)C[C@@H]1c1ccc(F)cc1 [Compound 1236],100,35,0,65,40,90,50,90,30,90,100,80,20,60,0,0,60,0,20,90,"pest or weed control at 125 g/ha [10, 20]: 30%; pest or weed control at 125 g/ha [11, 21]: 90%; pest or weed control at 500 g/ha [11, 22]: 100%"
Cc1ccccc1NC(=O)[C@H]1C(=O)N(C)C[C@@H]1c1ccc(C(F)(F)F)cc1 [Compound 1239],100,20,0,40,50,70,50,60,70,,90,50,50,50,30,20,20,0,90,90,"pest or weed control at 125 g/ha [10, 20]: 50%; pest or weed control at 125 g/ha [11, 21]: 80%; pest or weed control at 500 g/ha [11, 22]: 90%"
